# pEC50, pIC50: −log10 of the molar value. Active and inactive are the calls of the source. No cut-off for these calls is given here.
# Tested on: not listed separately
# Assay: Antagonist activity at Pseudomonas aeruginosa LasR expressed in Escherichia coli DH5alpha after 4 to 6 hrs by beta-galactosidase reporter gene assay
row,pIC50,Structure (SMILES)
1,4.58,O=C(Cc1ccc(Br)cc1)N[C@H]1CCOC1=O

# Tested on: not listed separately
# Assay: Antagonist activity at Pseudomonas aeruginosa GFP-fused LasR expressed in Escherichia coli BL21(DE3) after 4 to 6 hrs by fluorescence assay
row,Structure (SMILES),pIC50
1,O=C(Oc1c(Br)cc(Br)cc1CNC(=O)c1cccc(F)c1F)c1ccccc1Cl,4.19
2,O=C(NCc1cc(Br)cc(Br)c1OC(=O)c1ccccc1Cl)c1ccccn1,4.10
3,O=C(Cc1cc(Br)cc(Br)c1OC(=O)c1ccccc1Cl)Nc1ccccn1,4.38
4,O=C(NCc1cc(Br)cc(Br)c1OC(=O)c1ccccc1Cl)c1cccnc1,< 4.00
5,O=C(Cc1cc(Br)cc(Br)c1OC(=O)CCN1C(=O)C=CC1=O)N[C@H]1CCOC1=O,4.62

# Results, then the compound that gave them:
row,pIC50,Structure (SMILES)
1,< 4.00,O=C(Cc1cc(Br)cc(Br)c1OC(=O)c1ccccc1Cl)Nc1cccc(F)c1F
2,4.11,O=C(CCCN1C(=O)C=CC1=O)Oc1c(Br)cc(Br)cc1CNC(=O)c1ccccn1
3,< 4.00,O=C(NCc1cc(Br)cc(Br)c1OC(=O)c1ccccc1Cl)c1ccncn1
4,< 4.00,O=C(Cc1cc(Br)cc(Br)c1OC(=O)CCCN1C(=O)C=CC1=O)N[C@H]1CCOC1=O
5,< 4.00,O=C(Cc1cc(Br)cc(Br)c1OC(=O)c1ccccc1Cl)Nc1ccncn1

# Tested on: not listed separately
# Assay: Agonist activity at Pseudomonas aeruginosa GFP-fused LasR expressed in Escherichia coli BL21(DE3) after 4 to 6 hrs by fluorescence assay
row,Structure (SMILES),pEC50
1,O=C(Cc1cc(Br)cc(Br)c1OC(=O)c1ccc(Cl)cc1)Nc1ccccc1[N+](=O)[O-],> 4.30
2,O=C(Oc1c(Br)cc(Br)cc1CNC(=O)c1cccc(F)c1F)c1ccccc1Cl,< 4.30
3,O=C(NCc1cc(Br)cc(Br)c1OC(=O)c1ccccc1Cl)c1ccccn1,< 4.30
4,O=C(Cc1cc(Br)cc(Br)c1OC(=O)c1ccccc1Cl)Nc1ccccc1[N+](=O)[O-],6.43
5,Cc1ccc(C(=O)Oc2c(Br)cc(Br)cc2CC(=O)Nc2ccccc2[N+](=O)[O-])cc1,> 4.30
6,O=C(Cc1cc(Br)cc(Br)c1OC(=O)c1ccccc1Cl)N[C@H]1CCOC1=O,9.05
7,O=C(Cc1cc(Br)cc(Br)c1OC(=O)c1ccccc1Cl)Nc1ccccn1,> 4.30
8,O=C(Cc1cc(Br)cc(Br)c1OC(=O)c1c(Cl)cccc1Cl)Nc1ccccc1[N+](=O)[O-],6.50
9,O=C(Cc1cc(Br)cc(Br)c1OC(=O)c1ccc(Br)cc1)Nc1ccccc1[N+](=O)[O-],> 4.30
10,COc1ccccc1C(=O)Oc1c(Br)cc(Br)cc1CC(=O)Nc1ccccc1[N+](=O)[O-],6.61
11,O=C(Cc1cc(Br)cc(Br)c1OC(=O)c1ccccc1[N+](=O)[O-])Nc1ccccc1[N+](=O)[O-],6.31
12,O=C(Cc1cc(Br)cc(Br)c1OC(=O)c1ccccc1Cl)Nc1cccc([N+](=O)[O-])c1,> 4.30
13,O=C(Cc1cc(Br)cc(Br)c1OC(=O)c1ccccc1F)Nc1ccccc1[N+](=O)[O-],5.89
14,O=C(NCc1cc(Br)cc(Br)c1OC(=O)c1ccccc1Cl)c1cccnc1,9.31
15,O=C(Cc1cc(Br)cc(Br)c1OCc1c(Cl)cccc1Cl)Nc1ccccc1[N+](=O)[O-],6.79
16,O=C(Cc1cc(Br)cc(Br)c1OC(=O)c1ccccc1Cl)Nc1ccncc1[N+](=O)[O-],6.35
17,Cc1cccc(C(=O)Oc2c(Br)cc(Br)cc2CC(=O)Nc2ccccc2[N+](=O)[O-])c1,> 4.30
18,O=C(Cc1cc(Br)cc(Br)c1OC(=O)c1ccccc1)Nc1ccccc1[N+](=O)[O-],> 4.30
19,CCCCCCCCCC(=O)CC(=O)N[C@H]1CCOC1=O,4.14 to 4.19
20,O=C(Cc1cc(Br)cc(Br)c1OC(=O)c1ccc(F)cc1)Nc1ccccc1[N+](=O)[O-],> 4.30
21,O=C(Cc1cc(Br)cc(Br)c1OC(=O)c1ccccc1I)Nc1ccccc1[N+](=O)[O-],5.80
22,O=C(Cc1cc(Br)cc(Br)c1OC(=O)c1ccccc1Cl)Nc1ccc([N+](=O)[O-])cc1,> 4.30

# The remaining lines, values ahead:
row,pEC50,Structure (SMILES)
1,6.36,O=C(Cc1cc(Br)cc(Br)c1OC(=O)c1ccc(F)cc1Br)Nc1ccccc1[N+](=O)[O-]
2,6.12,Cc1ccccc1C(=O)Oc1c(Br)cc(Br)cc1CC(=O)Nc1ccccc1[N+](=O)[O-]
3,7.34,O=C(Cc1cc(Br)cc(Br)c1OC(=O)c1ccccc1Cl)Nc1cccc(F)c1F
4,> 4.30,O=C(Cc1cc(Br)cc(Br)c1OC(=O)c1cccc(Br)c1)Nc1ccccc1[N+](=O)[O-]
5,6.47,O=C(Cc1cc(Br)cc(Br)c1OC(=O)c1ccccc1Cl)Nc1cc(F)c(F)cc1[N+](=O)[O-]
6,6.57,O=C(Cc1cc(Br)cc(Br)c1OC(=O)c1ccccc1Br)Nc1ccccc1[N+](=O)[O-]
7,5.79,O=C(NCc1cc(Br)cc(Br)c1OC(=O)c1ccccc1Cl)c1ccncn1
8,> 4.30,O=C(Cc1cc(Br)cc(Br)c1OC(=O)c1cccc(Cl)c1)Nc1ccccc1[N+](=O)[O-]
9,6.22,O=C(Cc1cc(Br)cc(Br)c1OC(=O)c1ccccc1Cl)Nc1ccncn1

# Tested on: Pseudomonas aeruginosa
# Assay: Agonist activity at Pseudomonas aeruginosa GFP-fused LasR expressed in Escherichia coli BL21(DE3) at 50 uM after 4 to 6 hrs by fluorescence assay relative to 3-oxo-C12 HSL
row,Structure (SMILES),Emax
1,O=C(Cc1cc(Br)cc(Br)c1OC(=O)c1ccc(Cl)cc1)Nc1ccccc1[N+](=O)[O-],0%
2,O=C(Oc1c(Br)cc(Br)cc1CNC(=O)c1cccc(F)c1F)c1ccccc1Cl,0%
3,O=C(NCc1cc(Br)cc(Br)c1OC(=O)c1ccccc1Cl)c1ccccn1,0%
4,O=C(Cc1cc(Br)cc(Br)c1OC(=O)c1ccccc1Cl)Nc1ccccc1[N+](=O)[O-],105%
5,Cc1ccc(C(=O)Oc2c(Br)cc(Br)cc2CC(=O)Nc2ccccc2[N+](=O)[O-])cc1,33%
6,O=C(Cc1cc(Br)cc(Br)c1OC(=O)c1ccccc1Cl)N[C@H]1CCOC1=O,105%
7,O=C(Cc1cc(Br)cc(Br)c1OC(=O)c1ccccc1Cl)Nc1ccccn1,0%
8,O=C(Cc1cc(Br)cc(Br)c1OC(=O)c1c(Cl)cccc1Cl)Nc1ccccc1[N+](=O)[O-],95%
9,O=C(Cc1cc(Br)cc(Br)c1OC(=O)c1ccc(Br)cc1)Nc1ccccc1[N+](=O)[O-],35%
10,COc1ccccc1C(=O)Oc1c(Br)cc(Br)cc1CC(=O)Nc1ccccc1[N+](=O)[O-],45%
11,O=C(Cc1cc(Br)cc(Br)c1OC(=O)c1ccccc1[N+](=O)[O-])Nc1ccccc1[N+](=O)[O-],37%
12,O=C(Cc1cc(Br)cc(Br)c1OC(=O)c1ccccc1Cl)Nc1cccc([N+](=O)[O-])c1,0%
13,O=C(Cc1cc(Br)cc(Br)c1OC(=O)c1ccccc1F)Nc1ccccc1[N+](=O)[O-],76%
14,O=C(NCc1cc(Br)cc(Br)c1OC(=O)c1ccccc1Cl)c1cccnc1,31%
15,O=C(Cc1cc(Br)cc(Br)c1OCc1c(Cl)cccc1Cl)Nc1ccccc1[N+](=O)[O-],56%
16,O=C(Cc1cc(Br)cc(Br)c1OC(=O)c1ccccc1Cl)Nc1ccncc1[N+](=O)[O-],112%
17,Cc1cccc(C(=O)Oc2c(Br)cc(Br)cc2CC(=O)Nc2ccccc2[N+](=O)[O-])c1,24%
18,O=C(Cc1cc(Br)cc(Br)c1OC(=O)c1ccccc1)Nc1ccccc1[N+](=O)[O-],0%
19,O=C(Cc1cc(Br)cc(Br)c1OC(=O)c1ccc(F)cc1)Nc1ccccc1[N+](=O)[O-],39%
20,O=C(Cc1cc(Br)cc(Br)c1OC(=O)c1ccccc1I)Nc1ccccc1[N+](=O)[O-],50%
21,O=C(Cc1cc(Br)cc(Br)c1OC(=O)c1ccccc1Cl)Nc1ccc([N+](=O)[O-])cc1,0%

# Continued, values first:
row,Emax,Structure (SMILES)
1,64%,O=C(Cc1cc(Br)cc(Br)c1OC(=O)c1ccc(F)cc1Br)Nc1ccccc1[N+](=O)[O-]
2,85%,Cc1ccccc1C(=O)Oc1c(Br)cc(Br)cc1CC(=O)Nc1ccccc1[N+](=O)[O-]
3,116%,O=C(Cc1cc(Br)cc(Br)c1OC(=O)c1ccccc1Cl)Nc1cccc(F)c1F
4,44%,O=C(Cc1cc(Br)cc(Br)c1OC(=O)c1cccc(Br)c1)Nc1ccccc1[N+](=O)[O-]
5,89%,O=C(Cc1cc(Br)cc(Br)c1OC(=O)c1ccccc1Cl)Nc1cc(F)c(F)cc1[N+](=O)[O-]
6,82%,O=C(Cc1cc(Br)cc(Br)c1OC(=O)c1ccccc1Br)Nc1ccccc1[N+](=O)[O-]
7,90%,O=C(NCc1cc(Br)cc(Br)c1OC(=O)c1ccccc1Cl)c1ccncn1
8,0%,O=C(Cc1cc(Br)cc(Br)c1OC(=O)c1cccc(Cl)c1)Nc1ccccc1[N+](=O)[O-]
9,92%,O=C(Cc1cc(Br)cc(Br)c1OC(=O)c1ccccc1Cl)Nc1ccncn1

# Tested on: Pseudomonas aeruginosa
# Assay: Irreversible inhibition of Pseudomonas aeruginosa GFP-fused LasR expressed in Escherichia coli BL21(DE3) at 50 uM after 4 to 6 hrs by fluorescence assay
row,inhibition,Structure (SMILES)
1,Active,O=C(CCCN1C(=O)C=CC1=O)Oc1c(Br)cc(Br)cc1CNC(=O)c1ccccn1
2,Active,O=C(Cc1cc(Br)cc(Br)c1OC(=O)CCCN1C(=O)C=CC1=O)N[C@H]1CCOC1=O
3,Active,O=C(Cc1cc(Br)cc(Br)c1OC(=O)CCN1C(=O)C=CC1=O)N[C@H]1CCOC1=O

# Tested on: Pseudomonas aeruginosa
# Assay: Antagonist activity at Pseudomonas aeruginosa GFP-fused LasR expressed in Escherichia coli BL21(DE3) at 50 uM after 4 to 6 hrs by fluorescence assay relative to (S)-2-(4-bromophenyl)-N-(2-oxotetrahydrofuran-3-yl) acetamide
row,Structure (SMILES),Imax
1,O=C(Oc1c(Br)cc(Br)cc1CNC(=O)c1cccc(F)c1F)c1ccccc1Cl,80%
2,O=C(NCc1cc(Br)cc(Br)c1OC(=O)c1ccccc1Cl)c1ccccn1,105%
3,O=C(Cc1cc(Br)cc(Br)c1OC(=O)c1ccccc1Cl)Nc1ccccn1,122%
4,O=C(NCc1cc(Br)cc(Br)c1OC(=O)c1ccccc1Cl)c1cccnc1,0%
5,O=C(Cc1cc(Br)cc(Br)c1OC(=O)CCN1C(=O)C=CC1=O)N[C@H]1CCOC1=O,115%

# Further lines, results first:
row,Imax,Structure (SMILES)
1,0%,O=C(Cc1cc(Br)cc(Br)c1OC(=O)c1ccccc1Cl)Nc1cccc(F)c1F
2,116%,O=C(CCCN1C(=O)C=CC1=O)Oc1c(Br)cc(Br)cc1CNC(=O)c1ccccn1
3,0%,O=C(NCc1cc(Br)cc(Br)c1OC(=O)c1ccccc1Cl)c1ccncn1
4,109%,O=C(Cc1cc(Br)cc(Br)c1OC(=O)CCCN1C(=O)C=CC1=O)N[C@H]1CCOC1=O
5,0%,O=C(Cc1cc(Br)cc(Br)c1OC(=O)c1ccccc1Cl)Nc1ccncn1
